Active and inactive are the calls of the source. No cut-off for these calls is given here.
Key:
HCT-116 [1] = assay: Induction of apoptosis in human HCT116 cells assessed as downregulation of Bcl-xl protein at 1 uM inubated for 72 hrs by Western blot analysis; format: functional, cell-based
A549 [2] = assay: Effect on TRHDE mRNA levels in human A549 cells at 5 uM incubated for 48 hrs by RT-qPCR analysis; format: functional, cell-based
ASPC1 [3] = assay: Induction of apoptosis in human ASPC-1 cells assessed as upregulation of p21 protein at 1 uM inubated for 72 hrs by Western blot analysis; format: functional, cell-based
HCT-116 [4] = assay: Effect on ADRB2 mRNA levels in human HCT-116 cells at 5 uM incubated for 48 hrs by RT-qPCR analysis; format: functional, cell-based
[5] = molecular target: T1, Histone-lysine N-methyltransferase EZH2 (Homo sapiens, UniProt Q15910); assay: Inhibition of EZH2 in human A549 cells assessed as decrease in H3K27me3 level at 0.05 uM incubated for 72 hrs by Western blot analysis; format: cell-based
Target sequence in this assay (Q15910 whole entry, looked up): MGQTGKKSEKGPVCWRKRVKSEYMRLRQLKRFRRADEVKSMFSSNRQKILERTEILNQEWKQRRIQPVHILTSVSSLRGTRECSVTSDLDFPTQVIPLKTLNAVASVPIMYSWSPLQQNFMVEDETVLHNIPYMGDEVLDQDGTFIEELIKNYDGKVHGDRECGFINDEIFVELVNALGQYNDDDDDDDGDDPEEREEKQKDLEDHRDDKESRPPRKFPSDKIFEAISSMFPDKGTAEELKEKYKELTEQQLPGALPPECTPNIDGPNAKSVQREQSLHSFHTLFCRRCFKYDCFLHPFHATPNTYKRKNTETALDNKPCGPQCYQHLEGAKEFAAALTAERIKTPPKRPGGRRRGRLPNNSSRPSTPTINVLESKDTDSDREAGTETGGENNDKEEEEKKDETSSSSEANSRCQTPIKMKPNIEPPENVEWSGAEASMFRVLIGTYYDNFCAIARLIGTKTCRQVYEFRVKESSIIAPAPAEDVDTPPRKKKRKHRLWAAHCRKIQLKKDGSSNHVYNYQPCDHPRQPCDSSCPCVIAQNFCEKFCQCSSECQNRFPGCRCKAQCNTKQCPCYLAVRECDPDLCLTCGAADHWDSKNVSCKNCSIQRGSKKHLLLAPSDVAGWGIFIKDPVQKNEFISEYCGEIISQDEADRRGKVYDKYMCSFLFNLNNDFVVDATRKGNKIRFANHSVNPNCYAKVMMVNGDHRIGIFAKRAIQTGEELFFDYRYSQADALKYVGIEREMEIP

HCT-116 [6] = assay: Induction of apoptosis in human HCT116 cells assessed as downregulation of Bcl-2 protein at 1 uM inubated for 72 hrs by Western blot analysis; format: functional, cell-based
HCT-116 [7] = assay: Induction of apoptosis in human HCT116 cells assessed as early apoptotic cells at 20 uM measured after 72 hrs by flow cytometry (reference value: 2.8 %); format: functional
A549 [8] = assay: Effect on TXINP mRNA levels in human A549 cells at 5 uM incubated for 48 hrs by RT-qPCR analysis; format: functional, cell-based
A549 [9] = assay: Induction of apoptosis in human A549 cells assessed as downregulation of Bcl-2 protein at 1 uM inubated for 72 hrs by Western blot analysis; format: functional, cell-based
HCT-116 [10] = assay: Effect on TXINP mRNA levels in human HCT-116 cells at 5 uM incubated for 48 hrs by RT-qPCR analysis; format: functional, cell-based
[11] = AUC in 12 hr fasted BALB/c mouse at 80 mg/kg, po measured for 0.083 to 24 hrs by UPLC-MS/MS analysis; format: ADME, organism-based; parameters: time upper 24 hrs, dose 80 mg/kg, time lower 0.083 hrs, route po; details: in vivo
ASPC1 [12] = assay: Induction of apoptosis in human ASPC-1 cells assessed as downregulation of Bcl-xl protein at 1 uM inubated for 72 hrs by Western blot analysis; format: functional, cell-based
[13] = Clearance in 12 hr fasted BALB/c mouse at 80 mg/kg, ip measured for 0.083 to 24 hrs by UPLC-MS/MS analysis; format: ADME, organism-based; details: in vivo, time 0.083-24 hrs
A549 [14] = assay: Effect on TNFRSF21 mRNA levels in human A549 cells at 5 uM incubated for 48 hrs by RT-qPCR analysis; format: functional, cell-based
ASPC1 [15] = assay: Antitumor activity against human ASPC1 cells assessed as inhibition of colony formation measured after 12 to 20 days by crystal violet staining based analysis; format: functional, cell-based; details: dose <= 0.1 µM, time 12-20 day, DDE = dose-dependent effect
[16] = Tmax in 12 hr fasted BALB/c mouse at 80 mg/kg, ip measured for 0.083 to 24 hrs by UPLC-MS/MS analysis; format: ADME, organism-based; details: in vivo, time 0.083-24 hrs
[17] = Permeability of compound across apical to basolateral side in human Caco-2 cells measured for 1 to 3 hrs by LC-MS analysis; format: ADME, cell-based; details: time 1-3 hrs
HCT-116 [18] = assay: Induction of apoptosis in human HCT116 cells assessed as early apoptotic cells at 10 uM measured after 72 hrs by flow cytometry (reference value: 2.8 %); format: functional
[19] = molecular target: Bromodomain-containing protein 4 (Homo sapiens, UniProt O60885); assay: Displacement of fluorescein-labeled JQ1 from His6/TEV cleavage site fused human BRD4 (residues N44 to E168) expressed in Escherichia coli BL21 (DE3) incubated for 60 min by Fluorescence polarization assay
[20] = molecular target: T1, Histone-lysine N-methyltransferase EZH2; assay: Inhibition of EZH2 in human ASPC1 cells assessed as decrease in H3K27me3 level at 0.05 uM incubated for 72 hrs by Western blot analysis; format: cell-based
Target sequence in this assay (Q15910 whole entry, looked up): as above

[21] = molecular target: T1, Histone-lysine N-methyltransferase EZH2
Target sequence in this assay (Q15910 whole entry): as the sequence (Q15910 whole entry, looked up) above

HCT-116 [22] = assay: Effect on TRHDE mRNA levels in human HCT-116 cells at 5 uM incubated for 48 hrs by RT-qPCR analysis; format: functional, cell-based
[23] = Toxicity in BALB/c mouse xenografted with human A549 cells assessed as adverse effects at 60 mg/kg, ip administered 6 times weekly for 38 days; format: organism-based; details: in vivo, 912 h, time 38 day
A549 [24] = assay: Antitumor activity against human A549 cells xenografted in BALB/c mouse assessed as tumor growth inhibition at 80 mg/kg, ip administered 3 times weekly for 40 days and measured every 3 days relative to control; format: functional; parameters: scale not given: the % may be the effect or the level left; details: time 40 day

inhibition [5]: Active
AUC [11]: 13.5 µg·h/mL
CL/F [13]: 0.293 L/h/kg
Tmax [16]: 1 h
permeability [17]: Impermeable
IC50 [19]: 0.034 µM
inhibition [20]: Active
IC50 [21]: 0.49 µM
SMILES: CCN(c1cc(-c2ccc(OCCCCCNC(=O)C[C@@H]3N=C(c4ccc(Cl)cc4)c4c(sc(C)c4C)-n4c(C)nnc43)cc2)cc(C(=O)NCc2c(C)cc(C)[nH]c2=O)c1C)C1CCOCC1
Activity (HCT-116 [1]): Active
Activity (A549 [2]): Active
Activity (ASPC1 [3]): Active
Activity (HCT-116 [4]): Active
Activity (HCT-116 [6]): Active
Activity (HCT-116 [7]): 72.9%
Activity (A549 [8]): Active
Activity (A549 [9]): Active
Activity (HCT-116 [10]): Active
Activity (ASPC1 [12]): Active
Activity (A549 [14]): Active
Activity (ASPC1 [15]): Dde
Activity (HCT-116 [18]): 63.4%
Activity (HCT-116 [22]): Active
Activity [23]: Non-Toxic
Activity (A549 [24]): 62.3%

— ChEMBL document CHEMBL5154900, “Design and Synthesis of Dual EZH2/BRD4 Inhibitors to Target Solid Tumors” (J Med Chem, 2022)
